Source: article PMC8151276, “An Integrated Approach toward NanoBRET Tracers for Analysis of GPCR Ligand Engagement” (Molecules, 2021)

What was measured:
Type in all cases: binding
CCKAR = biological target: T1, CCKAR (Homo sapiens, UniProt P32238); assay: NanoBRET screen HiBiT-CCKAR in HEK293; conditions: CCKAR
T1 construct: purchased Promega (in-house HiBiT-GPCR construct library, NanoBRET)
T1 sequence (P32238 1-428): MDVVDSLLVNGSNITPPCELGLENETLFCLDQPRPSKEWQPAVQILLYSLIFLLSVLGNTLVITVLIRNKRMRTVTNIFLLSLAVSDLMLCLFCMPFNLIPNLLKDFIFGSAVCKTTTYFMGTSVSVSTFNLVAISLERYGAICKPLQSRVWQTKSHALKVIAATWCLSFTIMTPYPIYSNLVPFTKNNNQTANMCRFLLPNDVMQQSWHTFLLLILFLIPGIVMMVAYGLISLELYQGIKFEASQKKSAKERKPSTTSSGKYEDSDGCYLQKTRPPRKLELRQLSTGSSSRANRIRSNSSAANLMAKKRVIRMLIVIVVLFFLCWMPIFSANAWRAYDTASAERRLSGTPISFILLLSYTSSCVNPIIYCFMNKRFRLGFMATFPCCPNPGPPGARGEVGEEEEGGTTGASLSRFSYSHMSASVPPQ
Procedure: (§1) Each tracer candidate was screened across the entire library of HiBiT-GPCR constructs using NanoBRET as the detection modality. As depicted in Figure 4A, the specificity of interactions was evaluated through decrease in BRET due to competitive displacement of a bound tracer by excess parental compound. Each tracer was analyzed for binding to each HiBiT-GPCR fusion in the absence and in the presence of competing parental compound. Briefly, HEK293 cells were transfected with HiBiT-GPCR constructs diluted into promoterless DNA to reduce expression and maximize translocation to the cell surface. Each tracer candidate was then screened at concentrations of 1 μM and 0.1 μM across cells expressing these fusions. Cells were treated for 1.5 h with tracer either alone or in the presence of 20 μM competing parental compound (i.e., control). BRET was measured upon addition of purified LgBiT and subsequent complementation with HiBiT genetically fused to a GPCR. The specificity of interactions was assessed through a decrease in BRET signal due to competitive displacement of the bound tracer. To further gauge the robustness of these interactions, the fold response over the control (i.e., BRETtracer/BRETcontrol) was calculated. We chose a 1.5-fold response, which translates to ≥7-fold signal over noise as the minimal threshold required to score an interaction as positive. […]. Below we highlight the screening results obtained for our exemplary fluorescent tracers based on Clozapine, Amitriptyline and AZD1283.
(§2) HiBiT-GPCR DNA constructs were diluted in 10 mM Tris pH 8 to a final concentration of 0.01 μg/μL, arrayed in 96-well plates and stored at −20 °C. For transfection, HEK293 cells were suspended in Opti-MEM (without phenol red) supplemented with 2% fetal bovine serum (Seradigm) and 100 units/mL penicillin–streptomycin (Gibco) at a final concentration of 220,000 cells/mL and dispensed into white 96-well plates at 90 μL/well. Subsequent transfections and screens were carried using an Agilent Bravo Automated Liquid Handling Platform. First, the 96-well HiBiT DNA arrays were diluted 25-fold in Opti-MEM (without serum or phenol red) to a final concentration of 0.0004 μg/μL and 20 μL of the diluted DNAs were transferred into new 96-well plates. Next, promoterless carrier DNA (1 μg/μL) was diluted 25-fold (0.04 μg/μL) and then dispensed into the diluted arrays at 20 μL/well. Following brief mixing, Viafect transfection reagent (Promega) diluted 16-fold into Opti-MEM was dispensed into the plates at 40 μL/well. After mixing by pipetting, plates were incubated for 10 min on the pipetting station deck. The DNA-transfection reagent complexes were then added to plates containing cells. To facilitate the screen, 10 μL of DNA-transfection reagent complexes were added in duplicates to the top 4 and bottom 4 rows, resulting in two identical 48-well arrays per plate. Plates with transfected cells were incubated for 18–20 h at 37 °C/5% CO2. A screen of each tracer across the entire library using two different concentrations requires duplicate plates of transfected cells. Depending on the number of tracers being screened, transfections can be scaled up using the same ratios. The next day, for each tracer, four 20× screening solutions in tracer dilution buffer (Promega) were prepared: two duplicates at final concentration of 20 μM and two duplicates at a final concentration of 2 μM. A competing unmodified compound was added to one of each duplicate at a final concentration of 400 μM. The four resulting solutions were diluted 4-fold in Opti-MEM without serum or phenol red to generate 5× solutions (5 µM and 0.5 µM tracer +/− 100 μM competing compound). To screen the library, a BioTek MultiFlo FX liquid dispenser was used to dispense 22.5 µL of tracer solution to the top 4 rows and 22.5 µL tracer + competing compound solution to the 4 bottom rows. Plates were briefly mixed on an orbital shaker and incubated for 1.5 h at room temperature. […]

NPY2R = biological target: T2, NPY2R (Homo sapiens, UniProt P49146); assay: NanoBRET screen HiBiT-NPY2R in HEK293; conditions: NPY2R
T2 construct: purchased Promega (in-house HiBiT-GPCR construct library, NanoBRET)
T2 sequence (P49146 1-381): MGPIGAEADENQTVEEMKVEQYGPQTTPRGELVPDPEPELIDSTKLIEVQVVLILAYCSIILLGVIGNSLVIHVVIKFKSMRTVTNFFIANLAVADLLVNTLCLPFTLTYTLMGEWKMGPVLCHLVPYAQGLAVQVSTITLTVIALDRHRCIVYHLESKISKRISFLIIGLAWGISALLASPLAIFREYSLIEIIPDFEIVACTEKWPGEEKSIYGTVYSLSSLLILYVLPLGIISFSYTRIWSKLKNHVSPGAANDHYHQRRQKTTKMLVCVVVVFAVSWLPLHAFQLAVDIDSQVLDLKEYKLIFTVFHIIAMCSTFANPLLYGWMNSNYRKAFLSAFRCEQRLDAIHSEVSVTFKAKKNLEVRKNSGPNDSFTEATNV
Procedure: as §1, §2

PTGFR = biological target: T3, PTGFR (Homo sapiens, UniProt P43088); assay: NanoBRET screen HiBiT-PTGFR in HEK293; conditions: PTGFR
T3 construct: purchased Promega (in-house HiBiT-GPCR construct library, NanoBRET)
Procedure: as §1, §2

LTB4R = biological target: T4, LTB4R (Homo sapiens, UniProt Q15722); assay: NanoBRET screen HiBiT-LTB4R in HEK293; conditions: LTB4R
T4 construct: purchased Promega (in-house HiBiT-GPCR construct library, NanoBRET)
Procedure: as §1, §2

T3 sequence (P43088 whole entry): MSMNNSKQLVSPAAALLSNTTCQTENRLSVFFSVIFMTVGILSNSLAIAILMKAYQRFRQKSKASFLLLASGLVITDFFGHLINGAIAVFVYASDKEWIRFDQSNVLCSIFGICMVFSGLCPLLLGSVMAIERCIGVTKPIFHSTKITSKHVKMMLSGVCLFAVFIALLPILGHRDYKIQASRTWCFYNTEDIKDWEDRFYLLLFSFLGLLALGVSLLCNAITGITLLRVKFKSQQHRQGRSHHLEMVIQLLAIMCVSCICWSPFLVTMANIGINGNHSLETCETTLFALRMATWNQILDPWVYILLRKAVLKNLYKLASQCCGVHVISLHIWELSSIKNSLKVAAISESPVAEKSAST
T4 sequence (Q15722 whole entry): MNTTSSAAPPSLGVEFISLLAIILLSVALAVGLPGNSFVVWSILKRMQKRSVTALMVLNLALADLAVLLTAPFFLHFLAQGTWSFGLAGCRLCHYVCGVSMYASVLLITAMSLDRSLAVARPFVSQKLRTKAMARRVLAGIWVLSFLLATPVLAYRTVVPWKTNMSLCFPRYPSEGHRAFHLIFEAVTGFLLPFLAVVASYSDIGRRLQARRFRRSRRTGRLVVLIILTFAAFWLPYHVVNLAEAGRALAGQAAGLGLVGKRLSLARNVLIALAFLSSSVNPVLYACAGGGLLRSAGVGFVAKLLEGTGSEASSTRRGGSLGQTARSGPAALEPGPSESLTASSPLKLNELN

COc1ccccc1N1CCN(CCCCN2C(=O)c3ccc(CNC(=O)CCOCCNC(=O)c4ccc(CNC(=O)CCc5ccc6n5[B-](F)(F)[N+]5=C(c7ccc[nH]7)C=CC5=C6)cc4)cc3C2=O)CC1 [NAN-190-3-NB590]
NanoBRET Fold Response (CCKAR; tracer 0.1μM): 0.98 | NanoBRET Fold Response (CCKAR; tracer 1μM): 0.99 | NanoBRET Fold Response (NPY2R; tracer 0.1μM): 1.05 | NanoBRET Fold Response (NPY2R; tracer 1μM): 1.07 | NanoBRET Fold Response (PTGFR; tracer 0.1μM): 0.96 | NanoBRET Fold Response (PTGFR; tracer 1μM): 0.90 | NanoBRET Fold Response (LTB4R; tracer 0.1μM): 1.02 | NanoBRET Fold Response (LTB4R; tracer 1μM): 1.09

O=C(CCc1ccc2n1[B-](F)(F)[N+]1=C(c3ccc[nH]3)C=CC1=C2)NCc1ccc(C(=O)NCCOCCC(=O)N[C@@H]2CC[C@@]3(O)[C@H]4Cc5ccc(O)c6c5[C@@]3(CCN4CC3CC3)[C@H]2O6)cc1 [Naltrexone-3-NB590]
NanoBRET Fold Response (CCKAR; tracer 0.1μM): 1.10 | NanoBRET Fold Response (CCKAR; tracer 1μM): 1.05 | NanoBRET Fold Response (NPY2R; tracer 0.1μM): 1.05 | NanoBRET Fold Response (NPY2R; tracer 1μM): 0.96 | NanoBRET Fold Response (PTGFR; tracer 0.1μM): 1.10 | NanoBRET Fold Response (PTGFR; tracer 1μM): 0.91 | NanoBRET Fold Response (LTB4R; tracer 0.1μM): 0.68 | NanoBRET Fold Response (LTB4R; tracer 1μM): 1.06

Cc1cc2c(s1)Nc1ccccc1N=C2N1CCN(CCCNC(=O)CCOCCOCCOCCOCCNC(=O)CCc2ccc3n2[B-](F)(F)[N+]2=C(c4ccc[nH]4)C=CC2=C3)CC1 [Olanzapine-a-2-NB590]
NanoBRET Fold Response (CCKAR; tracer 0.1μM): 1.02 | NanoBRET Fold Response (CCKAR; tracer 1μM): 1.04 | NanoBRET Fold Response (NPY2R; tracer 0.1μM): 1.00 | NanoBRET Fold Response (NPY2R; tracer 1μM): 0.99 | NanoBRET Fold Response (PTGFR; tracer 0.1μM): 1.03 | NanoBRET Fold Response (PTGFR; tracer 1μM): 1.07 | NanoBRET Fold Response (LTB4R; tracer 0.1μM): 1.02 | NanoBRET Fold Response (LTB4R; tracer 1μM): 1.03

O=C(CCc1ccc2n1[B-](F)(F)[N+]1=C(c3ccc[nH]3)C=CC1=C2)NCc1ccc(C(=O)NCCOCCOCCNCC(O)COc2cccc3ccccc23)cc1 (stereo not drawn) [Propranolol-3-NB590]
NanoBRET Fold Response (CCKAR; 0.1μM): 0.99 | NanoBRET Fold Response (CCKAR; 1μM): 0.98 | NanoBRET Fold Response (NPY2R; 0.1μM): 1.02 | NanoBRET Fold Response (NPY2R; 1μM): 1.00 | NanoBRET Fold Response (PTGFR; 0.1μM): 0.97 | NanoBRET Fold Response (PTGFR; 1μM): 1.00 | NanoBRET Fold Response (LTB4R; 0.1μM): 0.97 | NanoBRET Fold Response (LTB4R; 1μM): 1.02

O=C(CCc1ccc2n1[B-](F)(F)[N+]1=C(c3ccc[nH]3)C=CC1=C2)NCCOCCOCCNC(=O)OCCOCCN1CCN(C2=Nc3ccccc3Sc3ccccc32)CC1 [Quetiapine-a-2-NB590]
NanoBRET Fold Response (CCKAR; tracer 0.1μM): 1.04 | NanoBRET Fold Response (CCKAR; tracer 1μM): 0.94 | NanoBRET Fold Response (NPY2R; tracer 0.1μM): 0.99 | NanoBRET Fold Response (NPY2R; tracer 1μM): 0.85 | NanoBRET Fold Response (PTGFR; tracer 0.1μM): 1.00 | NanoBRET Fold Response (PTGFR; tracer 1μM): 1.06 | NanoBRET Fold Response (LTB4R; tracer 0.1μM): 1.27 | NanoBRET Fold Response (LTB4R; tracer 1μM): 1.40

Cc1nc2n(c(=O)c1CCN1CCC(c3noc4cc(F)ccc34)CC1)CCCC2OC(=O)NCCOCCOCCOCCOCCNC(=O)CCc1ccc2n1[B-](F)(F)[N+]1=C(c3ccc[nH]3)C=CC1=C2 (stereo not drawn) [Risperidone-2-NB590]
NanoBRET Fold Response (CCKAR; tracer 0.1μM): 1.20 | NanoBRET Fold Response (CCKAR; tracer 1μM): 0.99 | NanoBRET Fold Response (NPY2R; tracer 0.1μM): 1.07 | NanoBRET Fold Response (NPY2R; tracer 1μM): 0.98 | NanoBRET Fold Response (PTGFR; tracer 0.1μM): 1.00 | NanoBRET Fold Response (PTGFR; tracer 1μM): 1.02 | NanoBRET Fold Response (LTB4R; tracer 0.1μM): 1.03 | NanoBRET Fold Response (LTB4R; tracer 1μM): 1.00

CC(C)N(CC[C@H](c1ccccc1)c1cc(CCNC(=O)CCOCCOCCOCCOCCNC(=O)CCc2ccc3n2[B-](F)(F)[N+]2=C(c4ccc[nH]4)C=CC2=C3)ccc1O)C(C)C [Tolterodine-2-NB590]
NanoBRET Fold Response (CCKAR; tracer 0.1μM): 1.01 | NanoBRET Fold Response (CCKAR; tracer 1μM): 1.01 | NanoBRET Fold Response (NPY2R; tracer 0.1μM): 1.01 | NanoBRET Fold Response (NPY2R; tracer 1μM): 0.93 | NanoBRET Fold Response (PTGFR; tracer 0.1μM): 0.84 | NanoBRET Fold Response (PTGFR; tracer 1μM): 0.94 | NanoBRET Fold Response (LTB4R; tracer 0.1μM): 0.92 | NanoBRET Fold Response (LTB4R; tracer 1μM): 0.96

CC(C)N(CC[C@H](c1ccccc1)c1cc(CCNC(=O)c2ccc(CNC(=O)CCc3ccc4n3[B-](F)(F)[N+]3=C(c5ccc[nH]5)C=CC3=C4)cc2)ccc1O)C(C)C [Tolterodine-BZ-NB590]
NanoBRET Fold Response (CCKAR; tracer 0.1μM): 1.05 | NanoBRET Fold Response (CCKAR; tracer 1μM): 1.03 | NanoBRET Fold Response (NPY2R; tracer 0.1μM): 0.90 | NanoBRET Fold Response (NPY2R; tracer 1μM): 1.04 | NanoBRET Fold Response (PTGFR; tracer 0.1μM): 0.99 | NanoBRET Fold Response (PTGFR; tracer 1μM): 1.01 | NanoBRET Fold Response (LTB4R; tracer 0.1μM): 0.95 | NanoBRET Fold Response (LTB4R; tracer 1μM): 1.03

CCCn1c(=O)c2[nH]c(-c3ccc(OCC(=O)NCCNC(=O)CCOCCNC(=O)c4ccc(CNC(=O)CCc5ccc6n5[B-](F)(F)[N+]5=C(c7ccc[nH]7)C=CC5=C6)cc4)cc3)nc2n(CCC)c1=O [XAC-3-NB590]
NanoBRET Fold Response (CCKAR; tracer 0.1μM): 1.01 | NanoBRET Fold Response (CCKAR; tracer 1μM): 1.01 | NanoBRET Fold Response (NPY2R; tracer 0.1μM): 0.93 | NanoBRET Fold Response (NPY2R; tracer 1μM): 1.03 | NanoBRET Fold Response (PTGFR; tracer 0.1μM): 1.02 | NanoBRET Fold Response (PTGFR; tracer 1μM): 0.98 | NanoBRET Fold Response (LTB4R; tracer 0.1μM): 1.09 | NanoBRET Fold Response (LTB4R; tracer 1μM): 1.11
